Tests used:
Assay type in all cases: cell-based
SMARCA2 [1] = target: T1, SMARCA2 (Homo sapiens, UniProt P51531); assay: MSD SMARCA2 degradation in A549 cell line; conditions: for Dmax: A549, A549 cells; for Dmax / DC50: 24 h; for DC50 / SMARCA2 MSD A549 degradation 24 h: Average Dmax %: A549 cells; for DC50: read-out: SMARCA2 MSD A549 degradation 24 h: Average external-Abs DC50
In short: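 SMARCA2 protein remaining after 24 h exposure of A549 cells (top concentration 1000 nM, 3-fold dilutions) was measured by MSD electrochemiluminescence immunoassay of cell lysates. Results are given as binned DC50 and maximal degradation (Dmax) codes.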

SMARCA4 = target: T2, SMARCA4 (Homo sapiens, UniProt P51532); assay: SMARCA4 Western blot degradation in MV4-11 cells; conditions: for Dmax: MV4-11, MV4-11 cells, read-out: SMARCA4 MSD MV411 degradation 24 h: average Dmax %; for Dmax / DC50: 24 h; for DC50 / SMARCA4 MSD MV411 degradation 24 h: average Dmax %: MV4-11 cells; for DC50: read-out: SMARCA4 MSD MV411 degradation 24 h: Mean external-Abs DC50
T2 construct: SMARCA2/SMARCA4 protein degradation selectivity in MV4-11 cells; endogenous in cells; host or cells: MV4-11
In short: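 Fluorescent LI-COR imaging of Western blots quantified SMARCA2 and SMARCA4 protein remaining in MV4-11 cells after 24 h of compound treatment. β-actin was the loading control, and DC50, Dmax and SMARCA2/4 selectivity are given as letter-coded ranges.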

SMARCA2 [2] = target: T1, SMARCA2; assay: SMARCA2 Western blot degradation in MV4-11 cells; parameters: SMARCA2/SMARCA4 protein degradation selectivity in MV4-11 cells; endogenous in cells; host or cells: MV4-11; conditions: for Dmax: MV4-11, MV4-11 cells, read-out: SMARCA2 MSD MV411 degradation 24 h: average Dmax %; for Dmax / DC50 / SMARCA2 MSD MV411 degradation 24 h: average Dmax %: 24 h; for DC50 / Selectivity in MV411 / SMARCA2 MSD MV411 degradation 24 h: average Dmax %: MV4-11 cells; for DC50: read-out: SMARCA2 MSD MV411 degradation 24 h: Mean external-Abs DC50; for Selectivity in MV411: SMARCA2/4 selectivity

T2 sequence (P51532 whole entry): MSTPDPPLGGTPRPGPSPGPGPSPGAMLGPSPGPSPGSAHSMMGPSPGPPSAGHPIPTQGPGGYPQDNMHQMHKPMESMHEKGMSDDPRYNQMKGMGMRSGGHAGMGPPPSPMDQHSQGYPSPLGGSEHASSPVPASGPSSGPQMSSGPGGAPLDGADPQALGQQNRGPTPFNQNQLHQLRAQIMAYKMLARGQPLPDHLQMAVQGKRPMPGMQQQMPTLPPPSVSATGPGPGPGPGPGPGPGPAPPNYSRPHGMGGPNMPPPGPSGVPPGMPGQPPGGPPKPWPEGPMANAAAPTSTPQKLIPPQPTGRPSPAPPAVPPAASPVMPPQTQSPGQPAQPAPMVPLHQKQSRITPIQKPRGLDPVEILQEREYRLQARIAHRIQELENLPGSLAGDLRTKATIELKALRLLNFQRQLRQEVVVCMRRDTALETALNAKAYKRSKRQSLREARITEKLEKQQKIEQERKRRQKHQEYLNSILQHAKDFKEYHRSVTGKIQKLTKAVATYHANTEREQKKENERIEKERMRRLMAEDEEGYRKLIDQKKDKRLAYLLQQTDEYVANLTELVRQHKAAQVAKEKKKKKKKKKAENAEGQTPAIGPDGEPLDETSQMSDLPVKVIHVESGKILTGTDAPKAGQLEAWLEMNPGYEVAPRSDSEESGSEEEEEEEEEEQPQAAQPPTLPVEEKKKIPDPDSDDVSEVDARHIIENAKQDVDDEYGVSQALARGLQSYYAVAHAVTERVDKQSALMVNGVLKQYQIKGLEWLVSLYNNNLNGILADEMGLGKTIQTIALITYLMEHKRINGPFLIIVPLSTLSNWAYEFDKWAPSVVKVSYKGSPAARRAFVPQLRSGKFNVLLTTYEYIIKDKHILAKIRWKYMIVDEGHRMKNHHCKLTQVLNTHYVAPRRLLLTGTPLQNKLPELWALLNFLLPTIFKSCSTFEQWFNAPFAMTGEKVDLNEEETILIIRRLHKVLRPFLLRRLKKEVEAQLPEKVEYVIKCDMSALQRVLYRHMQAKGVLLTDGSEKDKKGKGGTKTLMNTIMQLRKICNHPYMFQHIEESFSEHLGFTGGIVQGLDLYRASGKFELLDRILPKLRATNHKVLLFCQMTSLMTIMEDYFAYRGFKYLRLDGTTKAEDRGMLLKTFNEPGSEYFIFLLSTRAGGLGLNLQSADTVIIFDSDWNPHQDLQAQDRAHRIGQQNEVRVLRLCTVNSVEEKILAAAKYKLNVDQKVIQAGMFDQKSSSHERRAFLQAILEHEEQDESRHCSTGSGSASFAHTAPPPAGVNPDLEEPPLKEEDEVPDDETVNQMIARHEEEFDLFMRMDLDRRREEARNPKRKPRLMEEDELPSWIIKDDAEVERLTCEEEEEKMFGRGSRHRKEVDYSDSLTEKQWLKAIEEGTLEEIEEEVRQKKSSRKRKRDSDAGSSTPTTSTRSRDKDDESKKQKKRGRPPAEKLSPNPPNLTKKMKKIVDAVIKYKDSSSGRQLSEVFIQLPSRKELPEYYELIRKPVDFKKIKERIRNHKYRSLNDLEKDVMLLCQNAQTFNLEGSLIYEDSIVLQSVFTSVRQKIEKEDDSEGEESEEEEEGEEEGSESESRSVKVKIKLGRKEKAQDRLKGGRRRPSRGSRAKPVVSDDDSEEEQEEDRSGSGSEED
T1 sequence (P51531 whole entry): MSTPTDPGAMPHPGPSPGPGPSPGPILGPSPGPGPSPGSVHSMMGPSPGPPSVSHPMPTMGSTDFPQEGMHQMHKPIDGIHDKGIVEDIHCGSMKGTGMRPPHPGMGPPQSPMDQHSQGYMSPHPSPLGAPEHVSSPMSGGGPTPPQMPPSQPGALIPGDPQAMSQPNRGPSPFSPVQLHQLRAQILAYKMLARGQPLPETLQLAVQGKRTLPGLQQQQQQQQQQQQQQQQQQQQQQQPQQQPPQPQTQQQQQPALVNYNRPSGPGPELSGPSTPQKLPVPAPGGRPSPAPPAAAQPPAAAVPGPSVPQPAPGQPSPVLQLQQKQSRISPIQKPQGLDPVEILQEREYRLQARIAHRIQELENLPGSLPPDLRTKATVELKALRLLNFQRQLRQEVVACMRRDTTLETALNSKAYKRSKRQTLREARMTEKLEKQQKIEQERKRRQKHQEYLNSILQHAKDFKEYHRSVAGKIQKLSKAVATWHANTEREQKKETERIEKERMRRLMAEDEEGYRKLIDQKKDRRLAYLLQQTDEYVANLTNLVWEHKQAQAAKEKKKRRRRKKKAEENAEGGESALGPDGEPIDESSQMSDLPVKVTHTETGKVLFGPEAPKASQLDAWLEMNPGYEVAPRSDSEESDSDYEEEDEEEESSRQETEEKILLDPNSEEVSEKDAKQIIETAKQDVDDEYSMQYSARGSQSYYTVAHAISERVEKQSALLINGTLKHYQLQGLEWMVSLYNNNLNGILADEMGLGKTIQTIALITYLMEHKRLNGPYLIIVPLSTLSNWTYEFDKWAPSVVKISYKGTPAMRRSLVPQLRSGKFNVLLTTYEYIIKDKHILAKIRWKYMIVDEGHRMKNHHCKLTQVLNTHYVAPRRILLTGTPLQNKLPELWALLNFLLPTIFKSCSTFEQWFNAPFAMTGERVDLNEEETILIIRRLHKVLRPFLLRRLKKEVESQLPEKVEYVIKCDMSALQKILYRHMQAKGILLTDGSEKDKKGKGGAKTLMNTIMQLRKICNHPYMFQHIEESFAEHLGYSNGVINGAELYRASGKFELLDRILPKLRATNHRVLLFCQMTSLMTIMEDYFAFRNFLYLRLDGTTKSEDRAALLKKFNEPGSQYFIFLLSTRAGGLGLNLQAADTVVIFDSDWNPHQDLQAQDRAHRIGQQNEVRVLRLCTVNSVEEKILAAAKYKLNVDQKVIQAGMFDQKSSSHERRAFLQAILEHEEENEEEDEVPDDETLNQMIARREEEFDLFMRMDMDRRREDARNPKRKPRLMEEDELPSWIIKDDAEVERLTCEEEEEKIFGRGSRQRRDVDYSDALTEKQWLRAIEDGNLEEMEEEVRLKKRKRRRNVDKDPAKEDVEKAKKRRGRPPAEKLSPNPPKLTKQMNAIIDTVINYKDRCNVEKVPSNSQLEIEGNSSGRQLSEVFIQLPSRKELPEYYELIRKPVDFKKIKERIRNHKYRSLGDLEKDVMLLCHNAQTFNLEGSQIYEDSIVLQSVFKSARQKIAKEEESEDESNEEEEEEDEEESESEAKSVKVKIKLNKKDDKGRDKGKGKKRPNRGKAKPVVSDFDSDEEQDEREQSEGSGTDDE

Row | SMILES | Dmax (SMARCA2 [1]) [%] | DC50 (SMARCA2 [1]) [nM] | Dmax (SMARCA4) [%] | DC50 (SMARCA4) [nM] | Dmax (SMARCA2 [2]) [%] | DC50 (SMARCA2 [2]) [nM] | Selectivity in MV411 (SMARCA2 [2]) | SMARCA2 MSD A549 degradation 24 h: Average Dmax % (SMARCA2 [1]) | SMARCA4 MSD MV411 degradation 24 h: average Dmax % (SMARCA4) | SMARCA2 MSD MV411 degradation 24 h: average Dmax % (SMARCA2 [2])
1 | C#Cc1ccc(CNC(=O)[C@@H]2C[C@@H](O)CN2C(=O)[C@@H](NC(=O)N2CC3(CC(N4CCC(N5CCC(N6CCc7[nH]c8nnc(-c9ccccc9O)cc8c7[C@@H]6C)CC5)CC4)C3)C2)C(C)(C)C)cc1 [I-180] | > 90 | > 100 | > 90 | > 100 | 70 to 90 | 10 to 100 | D (D (<10 fold)) |  |  | 
2 | Cc1ncsc1-c1ccc(CNC(=O)[C@@H]2C[C@@H](O)CN2C(=O)[C@@H](NC(=O)[C@H]2CC3(C2)C[C@H](N2CCN(c4cnc(N5CCc6[nH]c7nnc(-c8ccccc8O)cc7c6[C@H]5C)nc4)CC2)C3)C(C)(C)C)cc1 (single isomer, unassigned) [I-77] |  | 10 to 50 |  | > 100 |  | 1 to 10 | C (C (10-100 fold)) | A (A (>90% degradation)) | D (D (<50% degradation)) | B (B (>70-90% degradation))
3 | Cc1ncsc1-c1ccc(CNC(=O)[C@@H]2C[C@@H](O)CN2C(=O)[C@@H](NC(=O)[C@H]2CC3(CC[C@H](N4CCN(c5ccnc(N6CCc7[nH]c8nnc(-c9ccccc9O)cc8c7[C@H]6C)n5)CC4)CC3)C2)C(C)(C)C)cc1 (single isomer, unassigned) [I-81] |  | 10 to 50 |  | 10 to 100 |  | 1 to 10 | C (C (10-100 fold)) | A (A (>90% degradation)) | B (B (>70-90% degradation)) | A (A (>90% degradation))
4 | C#Cc1ccc([C@H](C)NC(=O)[C@@H]2C[C@@H](O)CN2C(=O)[C@@H](NC(=O)[C@H]2CC3(C2)C[C@H](c2cnc(N4CCC(N5CCN6c7cc(-c8ccccc8O)nnc7NC[C@H]6C5)CC4)nc2)C3)C(C)(C)C)cc1 (stereo partly drawn) [I-363] |  | 10 to 50 |  | > 100 |  | 1 to 10 | C (C (10-100 fold)) |  |  | 
5 | C#Cc1ccc(CNC(=O)[C@@H]2C[C@@H](O)CN2C(=O)[C@H](NC(=O)N2CC3(CC(N4CCC(c5cnc(N6CCc7[nH]c8nnc(-c9ccccc9O)cc8c7[C@H]6C)nc5)CC4)C3)C2)C(C)(C)CCO)c(Cl)c1 (single isomer, unassigned) [I-316] | < 50 | > 100 | < 50 | > 100 | < 50 | > 100 | C (C (10-100 fold)) |  |  | 
6 | C#Cc1ccc(CNC(=O)[C@@H]2C[C@@H](O)CN2C(=O)[C@@H](NC(=O)[C@H]2CCC3(CC2)C[C@H](N2CCN(c4cnc(N5CCN6c7cc(-c8ccccc8O)nnc7NC[C@H]6C5)nc4)CC2)C3)C(C)(C)C)cc1 (single isomer, unassigned) [I-122] | > 90 | 10 to 50 | 50 to 70 | 10 to 100 | 70 to 90 | 1 to 10 | C (C (10-100 fold)) |  |  | 
7 | Cc1ncsc1-c1ccc(CNC(=O)[C@@H]2C[C@@H](O)CN2C(=O)[C@@H](NC(=O)[C@H]2CCC3(CC2)C[C@H](N2CCC4(CC2)CN(C(=O)N2CCN5c6cc(-c7ccccc7O)nnc6NC[C@H]5C2)CCO4)C3)C(C)(C)C)cc1 (single isomer, unassigned) [I-93] |  | > 100 |  | > 100 |  | 10 to 100 | C (C (10-100 fold)) | A (A (>90% degradation)) | C (C (50-70% degradation)) | B (B (>70-90% degradation))
8 | C#Cc1ccc(CNC(=O)[C@@H]2C[C@@H](O)CN2C(=O)[C@@H](NC(=O)N2CC3(CC(CCN4CCC(c5cnc(N6CCc7[nH]c8nnc(-c9ccccc9O)cc8c7[C@H]6C)nc5)CC4)C3)C2)C(C)(C)C)cc1 [I-416] | > 90 | 10 to 50 | > 90 | 10 to 100 | > 90 | 1 to 10 | C (C (10-100 fold)) |  |  | 
9 | C#Cc1ccc(CNC(=O)[C@@H]2C[C@@H](O)CN2C(=O)[C@@H](NC(=O)[C@H]2CC3(C2)C[C@H](N2CCN(C(=O)CCN4CCN5c6cc(-c7ccccc7O)nnc6NC[C@H]5C4)CC2)C3)C(C)(C)C)cc1 (stereo partly drawn) [I-275] |  | > 100 |  | 10 to 100 |  | 1 to 10 | C (C (10-100 fold)) |  |  | 
10 | C[C@H](NC(=O)[C@@H]1C[C@@H](O)CN1C(=O)[C@@H](NC(=O)[C@H]1CCC2(CC1)C[C@H](N1CCC(c3cnc(N4CCN5c6cc(-c7ccccc7O)nnc6NC[C@H]5C4)nc3)CC1)C2)C(C)(C)C)c1ccc(-c2ccnn2C)cc1 (single isomer, unassigned) [I-22] |  | 10 to 50 |  | 10 to 100 |  | < 1 | C (C (10-100 fold)) | A (A (>90% degradation)) | B (B (>70-90% degradation)) | A (A (>90% degradation))
11 | C#Cc1ccc(CNC(=O)[C@@H]2C[C@@H](O)CN2C(=O)[C@@H](NC(=O)N2CC3(CC(N4CCC(c5cnc(N6CCc7[nH]c8nnc(-c9ccccc9O)cc8c7[C@@H]6C)nc5)CC4)C3)C2)C(C)(C)C)c(OCCCOC)c1 [I-227] | > 90 | 50 to 100 | > 90 | > 100 | 70 to 90 | 10 to 100 | D (D (<10 fold)) |  |  | 
12 | C#Cc1ccc([C@H](C)NC(=O)[C@@H]2C[C@@H](O)CN2C(=O)[C@@H](NC(=O)N2CC3(CC(N4CCC(c5cnc(N6CCc7[nH]c8nnc(-c9ccccc9O)cc8c7[C@H]6C)nc5)CC4)C3)C2)C(C)(C)CCO)cc1 [I-259] | > 90 | < 10 | < 50 | > 100 | 70 to 90 | 1 to 10 | A (A (>500 fold)) |  |  | 
13 | C#Cc1ccc(CNC(=O)[C@@H]2C[C@@H](O)CN2C(=O)[C@H](NC(=O)[C@H]2CCC3(CC2)C[C@H](N2CCC(c4cnc(N5CCN6c7cc(-c8ccccc8O)nnc7NC[C@H]6C5)nc4)CC2)C3)C(C)(C)CCO)cc1 (single isomer, unassigned) [I-248] | < 50 | > 100 | < 50 | > 100 | < 50 | > 100 | D (D (<10 fold)) |  |  | 
14 | C#Cc1ccc(CNC(=O)[C@@H]2C[C@@H](O)CN2C(=O)[C@@H](NC(=O)N2CCCC(N3CCC(c4cnc(N5CCN6c7cc(-c8ccccc8O)nnc7NC[C@H]6C5)nc4)CC3)C2)C(C)(C)C)cc1 (mixture of isomers) [I-245] | 70 to 90 | > 100 | < 50 | > 100 | 50 to 70 | 10 to 100 | B (B (>100-500 fold)) |  |  | 
15 | C#Cc1ccc(CNC(=O)[C@@H]2C[C@@H](O)CN2C(=O)[C@H](NC(=O)N2CC3(CC(N4CCC(c5cnc(N6CCc7[nH]c8nnc(-c9ccccc9O)cc8c7[C@H]6C)nc5)CC4)C3)C2)C(C)(C)CCN2CCOCC2)cc1 (single isomer, unassigned) [I-337] | > 90 | > 100 | < 50 | > 100 | 70 to 90 | 10 to 100 | B (B (>100-500 fold)) |  |  | 

Source: patent US20250170248A1, “SMARCA DEGRADERS AND USES THEREOF” (Kymera Therapeutics, Inc., priority 2021, published 2025)
